Results as given in patent US12472193B2, “Methods and compositions for treating and preventing respiratory related diseases and conditions with xylitol-headgroup lipid analogs” (National Jewish Health, priority 2017, dated 2025).
Entries after “also recorded” stand apart in the source; their conditions may differ.

Assays:
Format in all cases: cell-based
[1] = molecular target: T1, TLR 4 (Mus musculus, UniProt Q9JHF9+Q9QUK6); experiment: LPS-induced TNF-α secretion by RAW264.7 cells (TLR 4 antagonism); conditions: for antagonism of TLR 4 activation (TNFα secretion): 10 ng/mL LPS, 50 μg/mL lipid; for antagonism of TLR 4 activation (TNFα secretion) / IC50 values (inhibition of TNFα release) / IC50: 4 hours; for IC50 values (inhibition of TNFα release) / IC50: RAW264.7, 10 ng/mL LPS, lipid 100 to 0.008 μg/mL; for IC50: read-out: IC50 values (inhibition of TNFα release) (converted)
T1 construct: endogenous in cells; host or cells: RAW264.7 (ATCC)
T1 sequence (Q9QUK6 26-835): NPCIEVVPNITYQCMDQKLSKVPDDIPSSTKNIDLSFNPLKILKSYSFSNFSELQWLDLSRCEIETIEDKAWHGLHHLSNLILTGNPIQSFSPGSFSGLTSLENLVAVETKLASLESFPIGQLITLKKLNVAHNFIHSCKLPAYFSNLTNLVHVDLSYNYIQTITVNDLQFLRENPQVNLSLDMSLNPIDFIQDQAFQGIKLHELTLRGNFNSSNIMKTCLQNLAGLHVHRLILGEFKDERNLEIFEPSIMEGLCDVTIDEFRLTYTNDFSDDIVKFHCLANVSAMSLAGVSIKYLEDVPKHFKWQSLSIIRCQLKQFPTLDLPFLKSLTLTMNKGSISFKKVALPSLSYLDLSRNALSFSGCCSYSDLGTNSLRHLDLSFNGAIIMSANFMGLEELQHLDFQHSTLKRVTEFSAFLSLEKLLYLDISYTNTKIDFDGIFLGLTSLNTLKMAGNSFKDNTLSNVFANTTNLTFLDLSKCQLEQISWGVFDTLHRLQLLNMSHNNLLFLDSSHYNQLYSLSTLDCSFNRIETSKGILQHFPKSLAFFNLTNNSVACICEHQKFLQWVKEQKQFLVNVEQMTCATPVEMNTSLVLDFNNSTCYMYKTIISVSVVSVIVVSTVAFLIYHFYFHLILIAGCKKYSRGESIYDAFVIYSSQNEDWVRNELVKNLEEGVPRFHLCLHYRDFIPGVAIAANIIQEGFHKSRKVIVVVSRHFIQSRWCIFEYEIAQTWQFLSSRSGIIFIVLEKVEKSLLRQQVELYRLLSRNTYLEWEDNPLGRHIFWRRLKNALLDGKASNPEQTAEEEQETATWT
T1 sequence (Q9JHF9 19-160): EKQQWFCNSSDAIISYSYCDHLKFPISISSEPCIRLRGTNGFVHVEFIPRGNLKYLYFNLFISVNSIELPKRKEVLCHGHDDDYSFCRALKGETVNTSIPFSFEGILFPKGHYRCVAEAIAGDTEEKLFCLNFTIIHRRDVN
Protocol: (§1) The mouse macrophage cell line, RAW264.7, was obtained from ATCC and maintained in DMEM, supplemented with 10% bovine growth serum and 1× penicillin streptomycin. Cells were maintained at 37° C. with 5% carbon dioxide: 95% air atmosphere within the incubator. Experiments were completed in a 96-well plate where cells were seated at a density of 1×10^5 cells per well, 24 prior to stimulation with TLR agonists and antagonists. Lipids were dried under a stream of nitrogen, hydrated with phosphate-buffered saline (PBS) at 37° C. for one hour, followed by water bath sonication to create liposomes. Each condition for cell stimulation and antagonism was prepared in DMEM in a separate tube and consisted of: control, TLR agonist, TLR agonist+lipid, and lipid alone. 100 μL aliquots of medium+agonists+antagonists were added to each well and incubated at 37° C. for 4 hours. Subsequently, the media were collected, diluted and an enzyme-linked immunosorbent assay (ELISA) was performed to quantify TNFα release by cells.
The additional experiments disclosed herein, tested the initial activity of multiple POPG analogs. […] However, it was unknown how the combination of a xylitol head group along with varying hydrophobic chains affects this activity and mechanism of suppression. Varying the hydrophobic chains provides an approach for optimization of a PX lipid for maximum efficacy and uncovers important structure/function relationships. To test antagonist activity of PX lipids for preventing the activation of TLR 4, LPS was added to RAW264.7 cells at 10 ng/mL in the absence or presence of 50 μg/mL of lipid and incubated for 4 hours. After incubation, media were collected and secretion of the proinflammatory cytokine, TNFα, was quantified by ELISA as a downstream consequence of TLR 4 activation. Eight xylitol lipid analogs suppressed the activation of TLR 4 in the presence of LPS stimulus. […] Although inhibition of TLR 4 by DSPX was statistically different from LPS alone, its antagonism was marginal. DSPX is also a saturated lipid and the hydrophobic chains are 18 carbons in length. […] In these studies none of the lipids alone elicited significant amounts of proinflammatory cytokine release.
For quantitative comparisons between POPG analogs and POPG, concentration-dependent inhibition studies were performed and IC50 values were determined. RAW264.7 cells were stimulated with 10 ng/mL of LPS in combination with concentrations of lipid from 100 μg/mL to 0.008 μg/mL. Cells were stimulated for 4 hours followed by collection of media and quantification of TNFα released into the medium.

[2] = molecular target: T2, TLR 2/1 (Mus musculus, UniProt Q9EPQ1+Q9QUN7); experiment: Pam3Cys-induced TNFα release by RAW264.7 cells (TLR 2/1 antagonism); conditions: for suppression of TLR 2/1 activation (TNFα release): Pam3Cys, 4 hours; for TLR2/1 antagonist activity: reduction in cytokine secretion vs activating TLR ligand alone
T2 construct: endogenous in cells; host or cells: RAW264.7 (ATCC)
T2 sequence (Q9QUN7 25-784): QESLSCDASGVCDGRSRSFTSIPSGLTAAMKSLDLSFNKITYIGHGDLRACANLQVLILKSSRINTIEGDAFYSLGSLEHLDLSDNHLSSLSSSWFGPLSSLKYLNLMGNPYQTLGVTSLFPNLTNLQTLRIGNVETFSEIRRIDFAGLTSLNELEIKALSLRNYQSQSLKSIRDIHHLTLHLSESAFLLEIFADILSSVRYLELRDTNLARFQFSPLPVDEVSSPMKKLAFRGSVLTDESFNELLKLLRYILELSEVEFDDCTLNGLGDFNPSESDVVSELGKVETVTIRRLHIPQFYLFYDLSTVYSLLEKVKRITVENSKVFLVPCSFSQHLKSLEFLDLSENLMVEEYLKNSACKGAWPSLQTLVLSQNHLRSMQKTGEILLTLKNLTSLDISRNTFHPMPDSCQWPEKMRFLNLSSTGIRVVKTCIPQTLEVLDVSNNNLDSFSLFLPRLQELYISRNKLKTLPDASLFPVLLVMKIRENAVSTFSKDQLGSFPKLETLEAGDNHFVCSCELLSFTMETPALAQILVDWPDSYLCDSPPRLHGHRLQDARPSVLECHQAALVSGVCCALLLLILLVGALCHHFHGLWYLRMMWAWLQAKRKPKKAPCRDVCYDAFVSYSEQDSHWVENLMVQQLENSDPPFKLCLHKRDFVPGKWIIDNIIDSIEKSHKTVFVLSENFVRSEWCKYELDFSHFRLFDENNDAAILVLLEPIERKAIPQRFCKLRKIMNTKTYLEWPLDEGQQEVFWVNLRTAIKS
T2 sequence (Q9EPQ1 25-795 limits assumed): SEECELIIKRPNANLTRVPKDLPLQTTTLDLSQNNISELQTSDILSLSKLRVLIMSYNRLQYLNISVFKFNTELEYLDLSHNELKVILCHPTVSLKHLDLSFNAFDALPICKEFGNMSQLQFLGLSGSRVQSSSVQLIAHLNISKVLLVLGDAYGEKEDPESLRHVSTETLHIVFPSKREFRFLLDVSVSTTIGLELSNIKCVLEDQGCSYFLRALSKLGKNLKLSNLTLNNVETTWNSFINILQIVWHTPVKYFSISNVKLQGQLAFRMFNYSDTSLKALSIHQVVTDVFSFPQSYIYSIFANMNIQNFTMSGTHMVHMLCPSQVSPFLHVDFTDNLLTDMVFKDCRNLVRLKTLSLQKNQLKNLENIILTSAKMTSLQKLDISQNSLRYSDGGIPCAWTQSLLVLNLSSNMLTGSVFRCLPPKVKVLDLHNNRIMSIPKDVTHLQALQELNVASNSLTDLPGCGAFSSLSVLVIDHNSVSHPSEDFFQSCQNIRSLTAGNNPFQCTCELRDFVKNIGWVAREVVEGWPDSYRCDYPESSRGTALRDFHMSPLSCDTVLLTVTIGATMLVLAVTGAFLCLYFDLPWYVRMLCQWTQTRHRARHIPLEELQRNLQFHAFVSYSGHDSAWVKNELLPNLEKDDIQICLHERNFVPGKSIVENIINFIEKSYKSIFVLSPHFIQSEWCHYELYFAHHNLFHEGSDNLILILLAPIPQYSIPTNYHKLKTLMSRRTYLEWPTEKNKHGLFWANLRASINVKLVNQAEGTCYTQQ
Protocol: as §1
The ability of xylitol lipid analogs to suppress the activation of TLR 2 heterodimers was assessed. Pam3Cys was used to selectively stimulate TLR 2/1 signaling in RAW264.7 cells and MALP-2 was used as a TLR 2/6 selective agonist also in RAW264.7 cells. RAW264.7 cells were stimulated with Pam3Cys in the absence, or presence of PX lipids for 4 hours. Following incubation, media were collected, diluted and analyzed for TNFα release as a consequence of TLR activation. Results for analog activity against TLR 2/1 activation was assessed at two concentrations of phospholipid and are summarized in FIGS. 4A and 4B.
Initially, activity of xylitol lipid analogs was assessed at 100 μg/mL and it was unclear whether there was a real antagonist effect especially when compared to POPG. Experiments were repeated with a 200 μg/mL concentration of lipid to determine the ability of PX lipids to suppress TLR 2/1 activation in the presence of Pam3Cys. […] DPPX could have an effect on TLR 2/1 signaling at high concentrations.

[3] = molecular target: T1, TLR 4; experiment: LPS-induced TNF-α secretion by RAW264.7 cells (TLR 4 antagonism); conditions: reduction in cytokine secretion vs activating TLR ligand alone

| Compound | antagonism of TLR 4 activation (TNFα secretion) [1] | IC50 values (inhibition of TNFα release) [1] | suppression of TLR 2/1 activation (TNFα release) ([2]; 100 μg/mL lipid) | suppression of TLR 2/1 activation (TNFα release) ([2]; 200 μg/mL lipid) | TLR2 antagonist activity [3] | TLR2/1 antagonist activity [2] | IC50 [1] | potency as TLR 4 antagonist compared to POPG ([1]; from dose response curves) | inhibitory concentration reducing TNF-α production by 50% (IC50), as shown in FIG. 3 ([1]; RAW264.7, 10 ng/ml LPS) |
| --- | --- | --- | --- | --- | --- | --- | --- | --- | --- |
| CCCCCCCCCCCCCCCCCC(=O)OCC(COP(=O)(O)OCC(O)C(O)C(O)CO)OC(=O)CCCCCCCCCCCCCCCCC (stereo not drawn) [DSPX, sn-1-stearoyl, sn-2-stearoyl sn-3 glycerol phosphoxylitol] | marginal | could not be determined | ineffective at both concentrations | not effective antagonists |  |  |  |  |  |
| CCCCCCCCCCCCCCCC(=O)OCC(COP(=O)(O)OCC(O)C(O)C(O)CO)OC(=O)CCCCCCCCCCCCCCC (stereo not drawn) [DPPX, sn-1-palmitoyl, sn-2-palmitoyl sn-3 glycerol phosphoxylitol] | ineffective as an antagonist | could not be determined |  | weakly effective |  |  |  |  |  |
| CCCCCCC=CCCCCCCCC(=O)OCC(COP(=O)(O)OCC(O)C(O)C(O)CO)OC(=O)CCCCCCCC=CCCCCCC (mixture of isomers) [16:1 DPPX, sn-1-palmitoleoyl, sn-2-palmitoleoyl sn-3 glycerol phosphoxylitol] |  | 1 µg/mL | did not appear to suppress activation | inhibit TLR2/1 activation to almost the same extent as the bioactive lipid POPG; also recorded: strongly suppressed; also recorded: suppressed TLR 2/1 activation | + (cutoff being greater than a 50% reduction in cytokine secretion compared to activating TLR ligand alone) | + (cutoff being greater than a 50% reduction in cytokine secretion compared to activating TLR ligand alone) |  |  |  |
| CCCCCCCCCCCCCCOC[C@H](COP(=O)(O)OCC(O)C(O)C(O)CO)OCCCCCCCCCCCCCC (mixture of isomers) [14:0 DEPX, sn-1-O-myristyl, sn-2-O-myristyl sn-3 glycerol phosphoxylitol] | effective antagonists |  | modest antagonists | inhibit TLR2/1 activation to almost the same extent as the bioactive lipid POPG; also recorded: strongly suppressed; also recorded: suppressed TLR 2/1 activation | + (cutoff being greater than a 50% reduction in cytokine secretion compared to activating TLR ligand alone) | + (cutoff being greater than a 50% reduction in cytokine secretion compared to activating TLR ligand alone) | 4.08 µM |  |  |
| CCCCCCCCC=CCCCCCCCCOCC(COP(=O)(O)OCC(O)C(O)C(O)CO)OCCCCCCCCC=CCCCCCCCC (mixture of isomers) [18:1 DEPX, sn-1-O-octadecenyl, sn-2-O-octadecenyl sn-3 glycerol phosphoxylitol] | effective antagonists; also recorded: inhibit | 0.33 µg/mL | modest antagonists | inhibit TLR2/1 activation to almost the same extent as the bioactive lipid POPG; also recorded: strongly suppressed; also recorded: suppressed TLR 2/1 activation | + (cutoff being greater than a 50% reduction in cytokine secretion compared to activating TLR ligand alone) | + (cutoff being greater than a 50% reduction in cytokine secretion compared to activating TLR ligand alone) |  | more potent antagonists of TLR 4 activation than POPG |  |
| CCCCCCCCCCCCCC(=O)OC[C@H](COP(=O)(O)OCC(O)C(O)C(O)CO)OC(=O)CCCCCCCCCCCCC (mixture of isomers) [DMPX, sn-1-myristoyl, sn-2-myristoyl sn-3 glycerol phosphoxylitol] | strong antagonistic activity |  | ineffective at both concentrations | not effective antagonists | + (cutoff being greater than a 50% reduction in cytokine secretion compared to activating TLR ligand alone) |  | 33 µM |  |  |
| CCCCCCCC/C=C\CCCCCCCC(=O)O[C@H](COC(=O)CCCCCCCCCCCCCCC)COP(=O)(O)OCC(O)CO (stereo partly drawn) [POPG, palmitoyl-oleoyl-phosphatidylglycerol, reference compound] | inhibits activation of TLR4 | 3.33 µg/mL | markedly inhibited | markedly inhibited |  |  |  |  | ~2 µg/mL |
| CCCCCCCC/C=C\CCCCCCCC(=O)O[C@H](COC(=O)CCCCCCCCCCCCCCC)COP(=O)([O-])OCC[N+](C)(C)C [POPC, 1-palmitoyl-2-oleoyl-sn-glycero-3-phosphocholine, reference compound] | does not significantly alter the activation of TLR4 | could not be determined | unaffected | unaffected |  |  |  |  |  |
